Data on 1 compound can be found in patent publication US11046651B2, “Piperazine substituted azapine derivatives and uses thereof” (Alairion, Inc., priority 2019, dated 2021).

One experiment addresses 5-HT2A (Homo sapiens (Human), UniProt P28223). Description: 5-HT2A binding assay ([3H]-Ketanserin, HEK293 stable cell line membranes). The conditions noted are these: Table F, class symbols. The method, then: H1 and 5-HT2A Binding Assay Protocol
(§1) The testing compounds were diluted with DMSO, starting at 2 mM, with 8-points and 5-fold serial dilutions. Ketanserin and Pyrilamine were diluted with DMSO, starting at 0.2 mM, with 8-points and 5-fold serial dilution.
(§2) 1 μl of a compounds of the present disclosure and either reference compound (Table C) were transferred to assay plates. 1 μl of 0.2 mM Ketanserin or Pyrilamine was transferred to an assay plate according to the plate map for nonspecific binding (Low control: LC). 1 μl of DMSO was transferred to an assay plate according to plate map for total binding (High control: HC).
(§3) 100 μlof membrane stocks were dispensed into the plates, following the plate map. 100 of radio ligand was added. The plates were sealed and shaken at 300 rpm at room temperature for 1 hour. The Unifilter-96 GF/C filter plates were soaked with 50 of 0.3% PEI per well for at least 0.5 hour at room temperature.
(§4) When the binding assays were complete, the reaction mixture was filtered through GF/C plates using Perkin Elmer Filtermate Harvester, and then each plate was washed 4 times with cold wash buffer. The filter plates were dried for 1 hour at 50 degrees. After drying, the bottom of the filter plate wells were sealed using Perkin Elmer Unifilter-96 backing seal tape. 50 μl of Perkin Elmer Microscint 20 cocktail was added. The top of the filter plates were sealed with Perkin Elmer TopSeal-A sealing film.
(§5) ^3H trapped on filters were counted using Perkin Elmer MicroBeta2 Reader. Inhibition constants were calculated using the following equation:
(§6) [formula] The data was analyzed using Prism 5. The model used was “log(inhibitor) vs. response—Variable slope” to fit the data and calculate IC50. The IC50 was then converted to Ki using following equation: Ki=IC50/(1+L/Kd). L is the radioligand concentration in the reaction system; Kd is the affinity of radioligand to the receptor.

Another experiment has as its target H1 (Homo sapiens (Human), UniProt P35367). Description: H1 binding assay ([3H]pyrilamine, HEK293 stable cell line membranes). The conditions noted are these: Table E, class symbols. The method, then:
Example 25. H1 and 5-HT2A Binding Assay Protocol
as §1, §2, §3, §4, §5, §6

Another experiment has as its target 5-HT2C (Homo sapiens (Human), UniProt P28335). The experiment is described as follows: 5-HT2C binding assay ([3H]-Mesulergine, HEK293 membranes).

Molecules are shown by their SMILES. Where two headings read alike, the source gives them in different places.

Chain of 5-HT2C (P28335 33-458): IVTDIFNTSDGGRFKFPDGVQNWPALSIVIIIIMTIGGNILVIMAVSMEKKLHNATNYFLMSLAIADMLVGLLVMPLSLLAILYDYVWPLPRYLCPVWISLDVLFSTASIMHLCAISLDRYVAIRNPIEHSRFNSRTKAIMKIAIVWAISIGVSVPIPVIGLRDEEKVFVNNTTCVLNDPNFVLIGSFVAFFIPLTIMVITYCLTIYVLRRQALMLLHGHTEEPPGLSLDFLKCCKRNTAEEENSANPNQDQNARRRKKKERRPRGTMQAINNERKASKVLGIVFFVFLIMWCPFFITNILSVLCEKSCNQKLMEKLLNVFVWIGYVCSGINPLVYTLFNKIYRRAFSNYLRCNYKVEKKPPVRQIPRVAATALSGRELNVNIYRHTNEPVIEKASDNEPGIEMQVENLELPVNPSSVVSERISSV
Chain of H1 (P35367 whole entry): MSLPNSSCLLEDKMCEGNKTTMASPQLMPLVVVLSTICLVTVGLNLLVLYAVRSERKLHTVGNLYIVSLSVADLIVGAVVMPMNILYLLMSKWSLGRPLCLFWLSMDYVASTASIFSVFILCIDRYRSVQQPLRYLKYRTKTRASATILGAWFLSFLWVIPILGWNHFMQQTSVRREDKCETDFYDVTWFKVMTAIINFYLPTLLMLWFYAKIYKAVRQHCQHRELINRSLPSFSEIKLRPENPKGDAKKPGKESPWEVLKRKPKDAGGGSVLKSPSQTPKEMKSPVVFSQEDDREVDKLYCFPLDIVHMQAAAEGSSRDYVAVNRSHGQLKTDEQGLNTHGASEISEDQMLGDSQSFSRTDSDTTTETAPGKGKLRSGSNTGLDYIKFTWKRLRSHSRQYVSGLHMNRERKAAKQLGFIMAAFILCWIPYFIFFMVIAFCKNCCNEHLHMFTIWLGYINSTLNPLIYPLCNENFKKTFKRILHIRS
Chain of 5-HT2A (P28223 whole entry, species assumed): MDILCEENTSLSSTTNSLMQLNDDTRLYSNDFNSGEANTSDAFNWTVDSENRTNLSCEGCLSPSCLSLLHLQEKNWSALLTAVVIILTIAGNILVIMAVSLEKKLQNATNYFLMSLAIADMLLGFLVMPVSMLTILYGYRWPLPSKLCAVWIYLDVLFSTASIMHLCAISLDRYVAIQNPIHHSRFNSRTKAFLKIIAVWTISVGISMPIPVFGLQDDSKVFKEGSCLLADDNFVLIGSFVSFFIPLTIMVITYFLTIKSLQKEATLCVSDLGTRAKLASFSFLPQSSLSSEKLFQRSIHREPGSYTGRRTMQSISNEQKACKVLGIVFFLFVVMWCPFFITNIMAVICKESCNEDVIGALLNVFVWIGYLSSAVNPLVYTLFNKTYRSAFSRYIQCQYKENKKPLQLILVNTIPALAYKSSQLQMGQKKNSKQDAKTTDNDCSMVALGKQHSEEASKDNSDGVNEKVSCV

In general, Ki refers to the equilibrium dissociation constant of an inhibitor or competing ligand from its target. Read a low Ki as tighter binding. On to `Cc1ccc2c(c1)Oc1cc(C)ccc1C(N1CCN(CC(C)(C)C(=O)O)CC1)=N2` [Compound No. 7, 3-(4-(3,7-dimethyldibenzo[b,f][1,4]oxazepin-11-yl)piperazin-1-yl)-2,2-dimethylpropanoic acid], for which the Ki was 0.001 to 0.025 µM at 5-HT2A, more than 0.05 µM on H1, more than 0.5 µM at 5-HT2C and 2.22 µM on 5-HT2C (numeric values).
